Residue numbers refer to the chain shown, from its start. “Also recorded” adds a separate entry of the source. Read-outs that look alike come from different tables or passages of the source.
Legend:
SFV [1] = assay: Viral load reduction (single-cycle dose response) assay, SFV; format: cell-based, Semliki Forest virus; conditions: 12.5 μM, VeroE6, MOI 5, 8 hpi, plaque assay
[2] = test system: FHNA-resistant CHIKV variants; format: cell-based; conditions: for Fold resistance: EC50 variant/EC50 wt; for EC50: read-out: Mean EC50 ± SD
[3] = test system: rCHIKV G230R+K299E and rCHIKV G230R+K299E+*524R; format: cell-based, Chikungunya virus; conditions: 10 μM, both mutant viruses, MOI 1
SFV nsP1 K231R+K300E = target: T1, SFV nsP1 K231R+K300E (Semliki forest virus, UniProt P08411, K231R/K300E); format: biochemical
T1 sequence (P08411 1-537 K231R/K300E): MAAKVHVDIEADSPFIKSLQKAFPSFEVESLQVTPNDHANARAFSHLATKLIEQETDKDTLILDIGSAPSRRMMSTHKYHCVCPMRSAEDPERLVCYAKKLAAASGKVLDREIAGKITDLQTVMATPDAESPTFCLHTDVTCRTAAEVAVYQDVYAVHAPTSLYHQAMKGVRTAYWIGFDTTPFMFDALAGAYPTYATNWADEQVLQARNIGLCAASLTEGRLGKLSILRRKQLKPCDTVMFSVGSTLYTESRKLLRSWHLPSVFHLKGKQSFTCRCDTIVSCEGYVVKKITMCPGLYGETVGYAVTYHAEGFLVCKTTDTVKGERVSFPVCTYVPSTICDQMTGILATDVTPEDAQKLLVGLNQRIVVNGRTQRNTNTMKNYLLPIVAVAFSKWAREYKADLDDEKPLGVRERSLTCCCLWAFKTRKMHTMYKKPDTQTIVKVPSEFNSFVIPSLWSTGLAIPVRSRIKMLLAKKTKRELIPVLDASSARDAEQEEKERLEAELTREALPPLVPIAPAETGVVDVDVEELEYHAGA

[4] = target: host enzyme SAH hydrolase; design: method as in PMID 26010585; conditions: in vitro; read-out: 50% inhibitory concentration, SAH hydrolase; cited from earlier work
SFV [5] = assay: CPE reduction assay, SFV
SINV = assay: CPE reduction assay, SINV; conditions: VeroE6 cells, MOI 0.025
CHIKV [6] = assay: CPE reduction assay, CHIKV
CHIKV [7] = assay: Time-of-drug-addition assay, CHIKV; conditions: 10 μM, pretreated or treated early (−12 to 4 h)
CHIKV [8] = assay: Viral load reduction (single-cycle dose response) assay, CHIKV
VeroE6 cells = assay: Cytotoxicity in uninfected cells (MTS/PMS) of the CPE reduction assay
wt SFV nsP1 = target: T2, wt SFV nsP1 (Semliki forest virus, UniProt P08411); assay: nsP1 enzymatic activity assay (m7GMP-nsP1 intermediate formation), wt; conditions: for Inhibition of wt SFV nsP1: 10 μM SAM
T2 sequence (P08411 1-537): T1 sequence (P08411 1-537 K231R/K300E) with R231K, E300K

[9] = 1 mM compound + 1 mM NAD+, absence of DTT
[10] = 1 mM, nonreducing conditions (absence of DTT)

For Nc1ncnc2c1ncn2C1C(F)=C(CCO)C(O)C1O (stereo not drawn) [FHNA, 6′-fluoro-homoneplanocin A], the “Reduction of SFV infectious progeny” value (SFV [1]) was greater than 1 log10, the Fold resistance ([2]; CHIKV wt) was 1 and the EC50 ([2]; CHIKV wt, VeroE6, MOI 0.05) was 140 ± 10 nM. For the same compound, the Fold resistance ([2]; variant 1a) was 100, the EC50 ([2]; variant 1a) was 14100 ± 10 nM and the Fold resistance ([2]; variant 1b) was 24. The EC50 ([2]; variant 1b) was 3400 ± 600 nM, the Fold resistance ([2]; variant 2a) was 12 and the EC50 ([2]; variant 2a) was 1700 ± 700 nM. For the same compound, the Fold resistance ([2]; variant 2b) was 21, the EC50 ([2]; variant 2b) was 3000 ± 600 nM and the Fold resistance ([2]; variant 3) was 9. The EC50 ([2]; variant 3) was 1300 ± 800 nM, the Fold resistance ([2]; variant 4) was 27 and the EC50 ([2]; variant 4) was 3800 ± 300 nM. For the same compound, the Fold resistance ([2]; variant 5) was 13, the EC50 ([2]; variant 5) was 1800 ± 800 nM and the “Infectious progeny titers lower than untreated controls” value ([3]; 12 hpi) was “at least 1.5 log10”. For the same compound, the “Infectious progeny titers lower than untreated controls” value ([3]; 24 hpi) was no less than 1.2 log10, the “Response of mutant vs wt SFV nsP1 to treatment” value (SFV nsP1 K231R+K300E; 50 μM to 1 mM, standard conditions) was “no difference between wt and mutant SFV nsP1 proteins” and the “Further reduction in signal in the presence of NAD+” value (SFV nsP1 K231R+K300E; [9]) was “about 6%”. For the same compound, the “Reduction of the signal” value (SFV nsP1 K231R+K300E; 1 mM compound + 1 mM NAD+, nonreducing conditions) was 25%, the Reduction in signal (SFV nsP1 K231R+K300E; [10]) was “about 20%” and the IC50 [4] was 910 nM. For the same compound, the “SI (SFV)” value (SFV [5]; CC50/EC50) was greater than 48, the EC50 (SFV [5]; read-out: EC50 (SFV), VeroE6 cells, MOI 0.025, MTS at 40 hpi, mean ± SD) was 5200 ± 3200 nM and the “Protection against SINV infection” value (SINV) was “did not confer protection; also recorded: not sensitive”. For the same compound, the “SI (CHIKV)” value (CHIKV [6]; CC50/EC50) was >1,000, the EC50 (CHIKV [6]; read-out: EC50 (CHIKV), VeroE6 cells, MOI 0.005, MTS at 96 hpi, mean ± SD) was 180 ± 110 nM and the “CHIKV specific infectivity (genome copies vs infectious virus yield)” value (CHIKV [7]) was “decrease in specific infectivity; also recorded: reduction in CHIKV-specific infectivity”. The “Reduction of CHIKV infectious progeny titers vs infected untreated cells” value (CHIKV [8]; 5 μM, VeroE6, MOI 1, 20 hpi, plaque assay) was 2.5 log10, the “Levels of genomic, subgenomic and negative-strand CHIKV RNA” value (CHIKV [8]; 0.1 to 10 μM, 8 hpi, in-gel hybridization) was “reduced in a dose-dependent manner” and the CC50 (VeroE6 cells; read-out: CC50 (CHIKV assay), CHIKV assay format) was greater than 250000 nM. For the same compound, the CC50 (VeroE6 cells; read-out: CC50 (SFV assay), SFV assay format) was greater than 250000 nM, the CC50 (VeroE6 cells; read-out: CC50 (SINV assay), SINV assay format) was greater than 250000 nM and the “Effect on formation of m7GMP-nsP1 intermediate” value (wt SFV nsP1; 50 μM to 1 mM, 100 μM SAM, 5 mM DTT) was “did not observe any inhibitory effect”. For the same compound, the “Inhibition of wt SFV nsP1” value (wt SFV nsP1; [9]) was “more than 50%”, the “Effect on formation of m7GMP-nsP1 intermediate at low SAM” value (wt SFV nsP1; 1 mM compound, 5 or 10 μM SAM) was “no direct inhibitory effect” and the “Inhibition of wt SFV nsP1” value (wt SFV nsP1; [10]) was “more than 40%”.

Source: publication PMC7179274, “6′-β-Fluoro-Homoaristeromycin and 6′-Fluoro-Homoneplanocin A Are Potent Inhibitors of Chikungunya Virus Replication through Their Direct Effect on Viral Nonstructural Protein 1” (Antimicrobial Agents and Chemotherapy, 2020)
